Measurements: patent US12157713B2, “Conjugated oligoelectrolytes as antimicrobial agents” (Nanyang Technological University, priority 2018, dated 2024)
Where two headings read alike, the source gives them in different places.

Tests used:
[1] = tested on: E. coli K12; assay: MIC by broth microdilution against E. coli K12; type: cell-based; details: Escherichia coli
Procedure: The respective minimum inhibition concentration (MIC) of each COE molecule was determined using a broth microdilution method. Briefly, COEs were diluted via a 2-fold dilution series in 100 μL of either Muller Hinton Broth (MHB) for E. coli and S. aureus or Brain Heart Infusion Broth (BHI) for E. faecalis in a 96-well plate to achieve the desired final concentration. Subsequently, each well was inoculated with 100 μL of 1×10^6 colony forming units (CFU) mL^−1 of the respective microorganism in MHB for E. coli or BHI for E. faecalis to achieve an inoculum density of 5×10^5 CFU mL^−1. The plates were then incubated at 37° C. with shaking (200 rpm) for 18 hrs. […] The results were obtained in triplicate.
The MIC values of COE-D4, COE-D6 and COE-D8 against the reference strain E. coli K12, pathogenic E. coli UT189, and the Gram positive pathogen Enterococcus faecalis OG1RF were determined using a broth microdilution method as described in the general method above. The MICs for E. coli K12 were determined to be 128, 16, and 4 μg mL^−1 for COE-D4, COE-D6, and COE-D8, respectively (FIG. 5a). […] This is not surprising as these two organisms differ in the capsular polysaccharides that they expressed, which are known to hinder the uptake of antimicrobials and mitigate their potency (M. A. Campos, et al., Infect. Immun. 2004, 72, 7107-7114). A K-type capsid comprising α2-8-linked sialic acid is excreted by UT189 and is known to be an important virulence factor for this organism (C. Whitfield, et al., Mol. Microbiol. 1999, 31, 1307-1319; G. G. Anderson, et al., Infect. Immun. 2010, 78, 963-975).

[2] = tested on: Staphylococcus aureus MRSA ATCC 43300; assay: Single-dose growth inhibition, Sa; type: cell-based
Procedure: (§1) Inhibition of bacterial growth was determined by measuring the absorbance at 600 nm (OD600), using a Tecan M1000 Pro monochromator plate reader. Growth inhibition was calculated for each well, relative to the reference growths determined from a negative control (media only) and positive control (bacteria without inhibitors) incubated in the same plate. A single dose of 32 μg/mL of COE (final concentration) was used for each test.
(§2) Percentage growth inhibition of an individual sample was calculated based on growth in a reference well determined from negative controls (media only) and positive controls (bacterial/fungal media without inhibitors). Negative inhibition values indicate that the growth rate (or OD600) is higher compared to the reference growth (bacteria/fungi only, set to 0% inhibition). The growth rates for all bacteria and fungi may vary at −/+10%, which were within the reported normal distribution of bacterial/fungal growth. Any significant variations (or outliers/hits) were identified by the modified Z-Score, and the active compounds were selected by a combination of inhibition values and Z-Score.
(§3) A M(i) value of >|2.5| (absolute) would classify the sample as outliers or hits. Active samples were denoted as compounds with inhibition values equal to or above 80% and absolute Z-Score above |2.5| for either replicate (n=2 on different plates). Partial active samples were denoted as compounds with inhibition values from 50% to <80%, or absolute Z-Score below |2.5|.

[3] = tested on: Klebsiella pneumoniae MDR ATCC 700603; assay: Single-dose growth inhibition, Kp; type: cell-based
Procedure: as §1, §2, §3

[4] = tested on: Escherichia coli FDA control ATCC 25922; assay: Single-dose growth inhibition, Ec; type: cell-based
Procedure: as §1, §2, §3

[5] = tested on: Cryptococcus neoformans var. grubii H99; ATCC 208821; assay: Single-dose growth inhibition, Cn; type: cell-based
Procedure: Growth inhibition of C. albicans was determined by measuring the absorbance at 530 nm (OD530), while the growth inhibition of C. neoformans was determined by measuring the difference in absorbance between 600 and 570 nm (OD600-570), after the addition of resazurin (0.001 wt. % final concentration) and incubation at 35° C. for additional 2 hrs. The absorbance was measured using a Biotek Synergy HTX plate reader. The relative growth inhibition was calculated for each well, relative to that determined from a negative control (media only) and positive control (bacteria without inhibitors) on the same plate as references. A single dose of 32 μg/mL of COE (final concentration) was used for each test.
as §2, §3

[6] = Solubility in PBS / aqueous solubility; type: physicochemical
[7] = tested on: E. coli K12; assay: SEM of COE-treated E. coli K12; type: cell-based, Escherichia coli; details: 32 μg mL^−1 COE, 2 hrs
Procedure: E. coli K-12 was grown, collected and washed according to the procedure described above (in the uptake measurements). COE solutions (in PBS) were added to a PBS suspension of E. coli K12 (OD600=1.0) to achieve final COE concentrations of 32 μg/mL. After incubating for 2 hrs at room temperature under shaking (200 rpm), the microbes were immediately fixed with 2.5% glutaraldehyde solution at 4° C. overnight. 10 μL of the fixed bacteria suspension was spotted onto the SEM conducting paste and left to dry in air. The bacteria samples were dehydrated with a series of increasingly concentrated ethanol solution (20%-100%). After drying overnight, the samples were coated with platinum and imaged with FESEM (JEOL JSM-6700F) to characterise the morphology of the samples.
Characterisation of treated E. coli K12 by scanning electron microscopy (SEM) COE-treated cells were characterised by SEM. E. coli K12 ([…]) were treated with 32 μg mL^−1 of each COE. […] This is consistent with the proposal that COE insertion disrupts membrane integrity and this effect is of a greater magnitude for COE-D8.

[8] = K12, 18 h, read-out: MIC against E. coli K12
[9] = K12, read-out: MIC against E. coli K12
[10] = K12, read-out: MICeff (MIC×U %)
[11] = ATCC700603, read-out: Growth inhibition Kp
[12] = ATCC25922, read-out: Growth inhibition Ec
[13] = ATCC208821, read-out: Growth inhibition Cn
[14] = aqueous buffer, in PBS, read-out: Solubility in PBS
[15] = PBS (aqueous solubility), read-out: aqueous solubility
[16] = K12, broth microdilution, MHB, 18 hrs, read-out: MIC against E. coli K12
[17] = 32 μg/mL single dose, n=2, read-out: Growth inhibition Sa
[18] = ATCC700603, 32 μg/mL single dose, n=2, read-out: Growth inhibition Kp
[19] = ATCC25922, 32 μg/mL single dose, n=2, read-out: Growth inhibition Ec
[20] = ATCC208821, 32 μg/mL single dose, n=2, read-out: Growth inhibition Cn

SMILES	MIC [1, 8]	MIC [1, 9]	MIC [1, 10]	inhibition at 32 µg/mL ([2]; read-out: Growth inhibition Sa)	inhibition at 32 µg/mL [3, 11]	inhibition at 32 µg/mL [4, 12]	inhibition at 32 µg/mL [5, 13]	solubility [6, 14]	Morphology of treated E. coli K12 by SEM [7]	solubility [6, 15]	MIC [1, 16]	inhibition at 32 µg/mL [2, 17]	inhibition at 32 µg/mL [3, 18]	inhibition at 32 µg/mL [4, 19]	inhibition at 32 µg/mL [5, 20]
C[N+](C)(C)CCCCOc1ccc(/C=C/c2ccc(OCCCC[N+](C)(C)C)cc2)cc1 [COE-D4]	128 µg/mL	128 µg/mL	3.8 µg/mL	> 80%	< 50%	< 50%	> 80%	3100 µg/mL	rod-shaped cells with smooth outer surfaces	–	–	–	–	–	–
C[N+](C)(C)CCCCCCOc1ccc(/C=C/c2ccc(OCCCCCC[N+](C)(C)C)cc2)cc1 [COE-D6]	16 µg/mL	16 µg/mL	2.6 µg/mL	> 80%	< 50%	> 80%	> 80%	240 µg/mL	pitting and membrane rupture	240 µg/mL	–	–	–	–	–
C[N+](C)(C)CCCCCCCCOc1ccc(/C=C/c2ccc(OCCCCCCCC[N+](C)(C)C)cc2)cc1 [COE-D8]	4 µg/mL	4 µg/mL	2.9 µg/mL	> 80%	50 to 80%	> 80%	> 80%	65 µg/mL	pitting and membrane rupture	–	–	–	–	–	–
CN(C)CC[N+](C)(C)CCCCCCOc1ccc(/C=C/c2ccc(OCCCCCC[N+](C)(C)CCN(C)C)cc2)cc1 [COE-D62N]	–	–	–	–	–	–	–	–	–	> 4000 µg/mL	8 µg/mL	> 80%	< 50%	> 80%	> 80%
CN(C)CC[N+](C)(C)CCCCCCCCOc1ccc(/C=C/c2ccc(OCCCCCCCC[N+](C)(C)CCN(C)C)cc2)cc1 [COE-D82N]	–	–	–	–	–	–	–	–	–	–	8 µg/mL	> 80%	> 80%	> 80%	> 80%
